Source: ChEMBL document CHEMBL3638675, “Alkoxy pyrimidine PDE10 inhibitors” (2014)

Molecular target: cAMP and cAMP-inhibited cGMP 3',5'-cyclic phosphodiesterase 10A (Homo sapiens, UniProt Q9Y233)
Test: Fluorescence Polarization Assay: The activity of the compounds in accordance with the present invention as PDE10 inhibitors may be readily determined without undue experimentation using a fluorescence polarization (FP) methodology that is well known in the art (Huang, W., et al., J. Biomol Screen, 2002, 7: 215). […] In a typical experiment the PDE10 inhibitory activity of the compounds of the present invention was determined in accordance with the following experimental method. PDE10A2 was amplified from human fetal brain cDNA (Clontech, Mountain View, Calif.) using a forward primer corresponding to nucleotides 56-77 of human PDE10A2 (Accession No. AF127480, Genbank Identifier 4894716), containing a Kozak consensus sequence, and a reverse primer corresponding to nucleotides 2406-2413 of human PDE10A2.

Sequence of cAMP and cAMP-inhibited cGMP 3',5'-cyclic phosphodiesterase 10A (Q9Y233 whole entry): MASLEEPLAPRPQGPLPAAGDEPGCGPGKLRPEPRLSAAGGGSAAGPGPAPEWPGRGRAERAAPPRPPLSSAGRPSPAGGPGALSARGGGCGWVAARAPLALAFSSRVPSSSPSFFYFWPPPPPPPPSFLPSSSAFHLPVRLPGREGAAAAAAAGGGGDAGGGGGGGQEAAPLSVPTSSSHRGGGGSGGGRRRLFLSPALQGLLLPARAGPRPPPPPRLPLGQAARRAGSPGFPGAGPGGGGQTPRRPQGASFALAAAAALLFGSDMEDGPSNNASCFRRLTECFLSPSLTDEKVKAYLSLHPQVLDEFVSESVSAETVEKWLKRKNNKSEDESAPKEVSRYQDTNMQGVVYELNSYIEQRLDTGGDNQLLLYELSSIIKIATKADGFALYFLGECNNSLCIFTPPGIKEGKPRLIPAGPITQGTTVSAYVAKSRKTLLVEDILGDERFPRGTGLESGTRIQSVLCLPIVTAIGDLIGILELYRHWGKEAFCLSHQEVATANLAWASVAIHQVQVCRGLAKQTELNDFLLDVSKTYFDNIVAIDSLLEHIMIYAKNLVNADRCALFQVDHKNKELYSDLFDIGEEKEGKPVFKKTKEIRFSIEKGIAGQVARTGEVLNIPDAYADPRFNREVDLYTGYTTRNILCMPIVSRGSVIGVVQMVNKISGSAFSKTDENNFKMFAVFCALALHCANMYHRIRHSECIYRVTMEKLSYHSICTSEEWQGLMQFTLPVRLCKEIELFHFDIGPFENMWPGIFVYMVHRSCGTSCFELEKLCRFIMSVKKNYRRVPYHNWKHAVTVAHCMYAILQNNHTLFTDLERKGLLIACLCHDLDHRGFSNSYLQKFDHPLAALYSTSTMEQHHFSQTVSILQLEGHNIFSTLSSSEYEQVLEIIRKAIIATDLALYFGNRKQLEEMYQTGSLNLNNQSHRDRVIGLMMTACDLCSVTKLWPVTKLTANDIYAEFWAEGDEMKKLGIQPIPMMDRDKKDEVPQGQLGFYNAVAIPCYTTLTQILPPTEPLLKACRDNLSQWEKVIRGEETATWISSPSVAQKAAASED

Cc1c(Cl)nc(OC[C@@H]2C[C@H]2c2ccc3ncccc3n2)nc1NCc1cnn(C)c1
Ki: 0.019 nM

Cc1nc(C)c(CNc2nc(OC[C@@H]3C[C@H]3c3ccc4ccccc4n3)nc(Cl)c2C)s1
Ki: 0.0006 nM

COc1nc(OC[C@H]2C[C@@H]2c2ccc3ncccc3n2)nc(NCc2cnn(C)c2)c1C
Ki: 0.17 nM
